Results on nine compounds are retold here after patent US12018041B2, “Metal tin cyclized perylene diimide derivative, method for preparing the same, and method for using the same” (Dalian University of Technology, priority 2019, dated 2024).

Data set [1] is described as follows: Singlet oxygen quantum yield by DPBF capture in DCM. The class given is physicochemical. The conditions noted are these: absorbance change at 414 nm. The source says: (4) The triplet energy of the photosensitizer can be transferred to triplet oxygen molecules (^3O2), to produce singlet oxygen molecules (^1O2). 1,3-diphenylisobenzofuran (DPBF) is used to capture singlet oxygen, and at the same time, DPBF itself is oxidized by ^1O2, resulting in a decrease in the absorption peak of DPBF at 414 nm in the UV-visible absorption spectrum. The singlet oxygen quantum yield of the photosensitizer molecule can be calculated by monitoring the absorbance change of DPBF at 414 nm. FIG. 4 is a graph showing decay of a UV-visible absorption of DPBF in DCM with time under the influence of 6-undecylamine derived tin cyclized perylene diimide as a photosensitizer. It is known from calculation that the singlet oxygen quantum yield of 6-undecylamine derived tin cyclized perylene diimide is 40%.

Data set [2] is described as follows: UV-Vis absorption spectrum in a solution state. The class given is physicochemical. Conditions: compared with the corresponding perylene diimide without tin ring.
Data set [3] can be described thus: Transient absorption spectrum and triplet decay. Type of data set: physicochemical. The conditions noted are these: dynamic absorption fitting at 485 nm in the transient absorption spectrum. As for the experimental part: (2) The transient absorption spectrum of 6-undecylamine derived tin cyclized perylene diimide (shown in FIG. 2) was tested, and a strong excited triplet absorption at 400 nm-515 nm was detected.
The decay time is 17 μs. 6-undecylamine derived tin cyclized perylene diimide has a relatively long triplet time life.

The next data set has as its system cervical cancer cells. As to the kind of experiment: DCFH-DA reactive oxygen imaging in cervical cancer cells. Conditions: cervical cancer cells with DCFH-DA. Type of data set: cell-based. The source says:
(5) The application of photosensitizers to photodynamic therapy requires the photosensitizers to have low cytotoxicity and capability of entering cells, and to achieve better singlet oxygen output in the cells. In cervical cancer cells, the fluorescent probe DCFH-DA, as a reactive oxygen detection reagent, is non-fluorescent and can freely penetrate the cell membrane to enter the cell. The reactive oxygen species (single oxygen) in the cells can oxidize the non-fluorescent DCFH to produce a fluorescent DCF, and the level of the reactive oxygen species can be known by detecting the fluorescence intensity of DCF. […] In the figure, fluorescence images of the cervical cancer cells, which are cultured in the presence of 6-undecylamine derived tin cyclized perylene diimide and DCFH-DA, subjected to no light, and 10 s, 20 s, 30 s of […] green light irradiation are respectively presented from left to right. It is known from the figure that the singlet oxygen generated from photosensitization of 6-undecylamine derived tin cyclized perylene diimide oxidizes DCFH to produce fluorescent DCF, which makes the fluorescence of cervical cancer cells appear by imaging, and the imaging effect becomes better along with the time.

With `CCC[CH2][Sn]1([CH2]CCC)[c]2cc3c4c(ccc5c6ccc7c8c(c[c]1c(c2c45)c86)C(=O)N(CCCC(C)C)C7=O)C(=O)N(CCCCC(CC)CCC)C3=O` (centres unmarked) [Example B10], in data set [1], the “Singlet oxygen quantum yield” value worked out at 26%. The Absorption spectrum result in data set [2] is given as “red shift”. For the same compound, in data set [3], the Triplet decay time is 12 μs.
The matching figures for `CCC[CH2][Sn]1([CH2]CCC)[c]2cc3c4c(ccc5c6ccc7c8c(c[c]1c(c2c45)c86)C(=O)N(C1CCNCC1)C7=O)C(=O)N(C1CCNCC1)C3=O` [Example B22]: 44%, “red shift” and 21 μs.
`CCC[CH2][Sn]1([CH2]CCC)[c]2cc3c4c(ccc5c6ccc7c8c(c[c]1c(c2c45)c86)C(=O)N(c1ccc(C(C)(C)C)cc1)C7=O)C(=O)N(c1ccc(C(C)(C)C)cc1)C3=O` [Example B14]: the “Singlet oxygen quantum yield” value in data set [1] was determined as 33%. Further, the Absorption spectrum result in data set [2] is on record as “red shift”. In data set [3], this compound gave a Triplet decay time of 14 μs.
The matching figures for `CCC[CH2][Sn]1([CH2]CCC)[c]2cc3c4c(ccc5c6ccc7c8c(c[c]1c(c2c45)c86)C(=O)N(CC(C)C)C7=O)C(=O)N(CC(C)C)C3=O` [Example B6]: 29%, “red shift” and 18 μs.
For `CCC[CH2][Sn]1([CH2]CCC)[c]2cc3c4c(ccc5c6ccc7c8c(c[c]1c(c2c45)c86)C(=O)N(c1cccc2ccccc12)C7=O)C(=O)N(c1cccc2ccccc12)C3=O` [Example B17], in that order: 36%, “red shift” and 11 μs.
For `CCC[CH2][Sn]1([CH2]CCC)[c]2cc3c4c(ccc5c6ccc7c8c(c[c]1c(c2c45)c86)C(=O)N(c1ccncc1)C7=O)C(=O)N(c1ccncc1)C3=O` [Example B20], in that order: 42%, “red shift” and 25 μs.
Turning to `CCC[CH2][Sn]1([CH2]CCC)[c]2cc3c4c(ccc5c6ccc7c8c(c[c]1c(c2c45)c86)C(=O)N(c1cccc2[nH]ncc12)C7=O)C(=O)N(c1cccc2[nH]ncc12)C3=O` [Example B16], the “Singlet oxygen quantum yield” value in data set [1] is on record as 46%. Moreover, the Absorption spectrum entry in data set [2] is listed as “red shift”. In data set [3], the Triplet decay time worked out at 19 μs.
For `CCCCCC(CC(C)CCC)N1C(=O)c2ccc3c4ccc5c6c(c[c]7c(c8[c](cc(c2c38)C1=O)[Sn]7([CH2]CCC)[CH2]CCC)c64)C(=O)N(C(CCCCC)CC(C)CCC)C5=O` (centres unmarked) [Example B4], in that order: 47%, “red shift” and 17 μs.
On to `CCCCCC(CCCCC)N1C(=O)c2ccc3c4ccc5c6c(c[c]7c(c8[c](cc(c2c38)C1=O)[Sn]7([CH2]CCC)[CH2]CCC)c64)C(=O)N(C(CCCCC)CCCCC)C5=O` [6-undecylamine derived tin cyclized perylene diimide], for which the “Singlet oxygen quantum yield” value in data set [1] amounted to 40%. For the same compound, the “irradiation time after which fluorescence intensity of cervical cancer cells no longer changes” value with cervical cancer cells (420 nm green light irradiation) amounted to 20 s. Also, in the data set with cervical cancer cells (no light and 10 s, 20 s, 30 s of 420 nm green light irradiation), the “singlet oxygen effect in cells (DCF fluorescence)” value is listed as “good singlet oxygen effect in cells”. The Absorption spectrum result in data set [2] is listed as “obvious red shift”. Also, the Triplet decay time in data set [3] worked out at 17 μs.
